The subject of one data set is H460 cells. The data set can be described thus: MTT cytotoxicity, H460 cells. It is filed as cell-based. The settings on record: 500 μM, 72 h. As to the method: The NSCLC A549 and H460 cells were incubated in 1640 medium containing 10% fetal bovine serum albumin, and these cells were stored in a humidified environment of 37 °C and 5% carbon dioxide.
In order to investigate the cytotoxicity of PEG-CAR-C16 micelles, the cell inhibition rates of A549 and H460 cells were determined by the MTT. Primarily, A549 and H460 cell lines were respectively cultured in 1640 culture medium, then transferred into a 96-well plate and incubated for 24 h under the condition of 37 °C, 5% CO2. Then, CAR and PEG-CAR-C16 micelles solution with different concentrations (15–500 μM) were added into the 96-well plate and incubated for 24, 48, and 72 h, respectively. After added with 10 μL of MTT solution to each well, the cells were incubated at 37 °C for 4 h again. Finally, the solution was removed, 100 μL of DMSO was then added to dissolve the produced formazan crystals and the […] were recorded by microplate reader. The cytotoxicity of PEG-CAR-C16 micelles could be expressed by cell inhibition rate.

For a further data set, the system named is H460 tumor. The data set can be described thus: In vivo antitumor experiment in H460 tumor-bearing nude mice. The settings on record: tail vein injection twice a week for two weeks, CAR 0.75 and 1.5 mg·kg^−1, equivalent PEG-CAR-C16 5.5 and 11.0 mg·kg^−1. As to the method: The female nude mice models (5–6 weeks old, 18–22 g) used in the experiment were purchased from Unilever (London, UK), and the experiment was conducted in accordance with the principle of protection of experimental animals. To establish animal model of NSCLC, 0.2 mL of H460 cells with concentration density about 1.0 × 10^7/mL were inoculated to the left axilla of the mice. The volume of tumors was measured and recorded using a vernier caliper.
When the average tumor volume of nude mice inoculated with H460 cells grown to about 100 mm^3, the mice were randomly divided into […] (n = 6) including normal saline group (I, NS), CAR group (II, 0.75 mg·kg^−1), equivalent PEG-CAR-C16 group (IV, 5.5 mg·kg^−1), CAR group (III, 1.5 mg·kg^−1), equivalent PEG-CAR-C16 group (V, 11.0 mg·kg^−1). The mice in each group were given drugs by tail vein injection twice a week for two weeks. The volume of tumor was measured every two days and calculated according to the long diameter a and the short diameter b. The tumor inhibition rate is expressed as follows: tumor volume (Vt)=a×b^2/2.

A short description of data set [1]: In vivo pharmacokinetics of Pt after intravenous injection (ICP-MS). Also on record: species or system Wistar rats. The settings on record: Pt in rats, equivalent CAR dose 1.5 mg·kg^−1. As to the method: To conduct the pharmacokinetic tests, six female Wistar rats (Harlan, Israel, 200 ± 20 g) were randomly administered into two groups primarily. The CAR solution was prepared by dissolving CAR in 5% glucose solution, and the PEG-CAR-C16 polymer micelles were prepared by hydrating the thin film using 5% glucose solution during the micelle formation. Then CAR and PEG-CAR-C16 polymer micelles (the equivalent CAR does was 1.5 mg·kg^−1) were injected intravenously. After collected from the treated […] within a specified time point, the blood samples were centrifuged at 3000 rpm for 10 min, and then the centrifuged samples were frozen at −20 °C for further use. All the blood samples were processed by microwave digestion and then the Pt concentration was examined by using inductively coupled plasma mass spectrometry (ICP-MS). The representative pharmacokinetic parameters were calculated by DAS2.0.

`N.N.O=C([O-])C1(C(=O)[O-])CCC1.[Pt+2]` [CAR, Carboplatin]: the cell viability rate with H460 cells is 51.6%. The “tumor volume growth / tumor inhibition effect” value in the data set with H460 tumor is “could control the growth of tumor volume effectively”. Moreover, in data set [1], the “AUC0–∞” value amounted to 4.84 ± 1.58 mg·L^–1·h, the CL is reported as 0.57 ± 0.11 L·h^–1·kg^–1, the “MRT0–∞” value came to 4.72 ± 0.91 h and the Vd is given as 0.66 ± 0.15 L·kg^–1. In addition, the t1/2 in data set [1] is 1.90 ± 1.91 h.

The record behind these values is publication PMC8238065, “Prodrug-based nano-delivery strategy to improve the antitumor ability of carboplatin in vivo and in vitro” (Drug Delivery, 2021).
